From US20250129070A1, “BIFUNCTIONAL ANDROGEN RECEPTOR COMPOUNDS” (priority 2023, published 2025)

Legend:
AR / CBP ternary complex = test: Ternary complex formation assay (sandwich ELISA, AR capture / CBP detection) in VCaP cell lysates; assay type: cell-based; conditions: 1.5 hours treatment, sandwich ELISA (AR capture, CBP or p300 detection)
Summary of the method: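 VCaP cells (50K/well, 5% charcoal-stripped FBS, ≥3 days) treated with bifunctional compound for 1.5 h, then lysed 30 min at 4 °C. AR captured on anti-AR (AR 441) plates; bound CBP or p300 detected by rabbit mAb plus HRP secondary. QuantaRed chemifluorescence read at ex 570/em 585, immediately and at 5 and 15 min.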

VCaP cells = test: VCaP growth inhibition assay; assay type: cell-based; conditions: 30 pM R1881, 9 days, CTG
Experimental: VCaP cells (ATCC Cat #CRL-2876) are plated at 1×10^4 cells per well of a white plastic 96-well cluster plate (Thermo Scientific Nunc Cat #165306) in 100 uL phenol red-free DMEM (Gibco Cat #21063-029) media with 5% CSS (Omega Scientific Cat #FB-04). Cluster plates are returned to the incubator (37*C/5% CO2) for 72 hours prior to treatment. Just prior to treatment, 100 μL of phenol red-free DMEM/5% CSS and […] R1881 (Sigma Cat #R0908-10 mg) was added to each well of the cluster plates (Final R1881 concentration=30 pM). Compounds (200×) were added to each well in a volume of 1 uL, with serial dilutions (1:5) from 20 uM to 2 pM (final concentrations in well are 100 nM to 10 fM). Cluster plates are returned to the incubator for 9 days.
After the 9-day treatment period, media was removed from the cluster plates by inversion and 100 uL room temperature CTG reagent (Promega Cat #G7573) is added to each well. The cluster plates are placed on a shaker and incubated at room temperature for 20 minutes. Following this shaking/incubation, cluster plates are read on a luminometer (BMG ClarioStar). IC50 values are obtained by graphing the RLU data vs. compound concentration with nonlinear regression 4-parameter logistic curves (GraphPad Prism).

SMILES	EC50 (AR / CBP ternary complex)	IC50 (VCaP cells)
CC(=O)N1CCc2c(c(N3CCCc4cc(-c5cnn(C)c5)c(C(F)F)cc43)nn2C2CCN(CC#Cc3ncc(C(=O)NC4C(C)(C)C(Oc5ccc(C#N)c(Cl)c5)C4(C)C)cn3)CC2)C1 (stereo not shown) [Compound 19, 2-[3-[4-[5-acetyl-3-[7-(difluoromethyl)-6-(1-methylpyrazol-4-yl)-3,4-dihydro-2H-quinolin-1-yl]-6,7-dihydro-4H-pyrazolo[4,3-c]pyridin-1-yl]-1-piperidyl]prop-1-ynyl]-N-[3-(3-chloro-4-cyano-phenoxy)-2,2,4,4-tetramethyl-cyclobutyl]pyrimidine-5-carboxamide]	< 1 nM	0.1 to 1 nM
CC(=O)N1CCc2c(c(N3CCCc4cc(-c5cnn(C)c5)c(C(F)F)cc43)nn2C2CN(C3CCN(c4ncc(C(=O)NC5C(C)(C)C(Oc6ccc(C#N)c(Cl)c6)C5(C)C)cn4)CC3)C2)C1 (stereo not shown) [Compound 11, 2-[4-[3-[5-acetyl-3-[7-(difluoromethyl)-6-(1-methylpyrazol-4-yl)-3,4-dihydro-2H-quinolin-1-yl]-6,7-dihydro-4H-pyrazolo[4,3-c]pyridin-1-yl]azetidin-1-yl]-1-piperidyl]-N-[3-(3-chloro-4-cyano-phenoxy)-2,2,4,4-tetramethyl-cyclobutyl]pyrimidine-5-carboxamide]	10 to 100 nM	0.1 to 1 nM
COc1cc(OC2C(C)(C)C(NC(=O)c3ccc(N4CCC(N5CC6(CCC(n7nc(N8CCCc9cc(-c%10cnn(C)c%10)c(C(F)F)cc98)c8c7CCN(C(C)=O)C8)CC6)C5)CC4)cc3)C2(C)C)ccc1C#N (stereo not shown) [Compound 372, 4-[4-[7-[5-acetyl-3-[7-(difluoromethyl)-6-(1-methylpyrazol-4-yl)-3,4-dihydro-2H-quinolin-1-yl]-6,7-dihydro-4H-pyrazolo[4,3-c]pyridin-1-yl]-2-azaspiro[3.5]nonan-2-yl]-1-piperidyl]-N-[3-(4-cyano-3-methoxy-phenoxy)-2,2,4,4-tetramethyl-cyclobutyl]benzamide]	< 1 nM	≤ 0.1 nM
CNC(=O)N1CCc2c(c(N3CCCc4cc(-c5cnn(C)c5)c(C(F)F)cc43)nn2C2CCN(c3ncc(C(=O)NC4C(C)(C)C(Oc5ccc(C#N)c(Cl)c5)C4(C)C)cn3)CC2)C1 (stereo not shown) [Compound 93, 1-[1-[5-[[3-(3-chloro-4-cyano-phenoxy)-2,2,4,4-tetramethyl-cyclobutyl]carbamoyl]pyrimidin-2-yl]-4-piperidyl]-3-[7-(difluoromethyl)-6-(1-methylpyrazol-4-yl)-3,4-dihydro-2H-quinolin-1-yl]-N-methyl-6,7-dihydro-4H-pyrazolo[4,3-c]pyridine-5-carboxamide]	> 100 nM	0.1 to 1 nM
COc1cc(OC2C(C)(C)C(NC(=O)c3ccc(N4CCC(C(=O)N5CCC(n6nc(N7CCCc8cc(-c9cnn(C)c9)c(C(F)F)cc87)c7c6CCN(C(C)=O)C7)CC5)CC4)cc3)C2(C)C)ccc1C#N (stereo not shown) [Compound 252, 4-[4-[4-[5-acetyl-3-[7-(difluoromethyl)-6-(1-methylpyrazol-4-yl)-3,4-dihydro-2H-quinolin-1-yl]-6,7-dihydro-4H-pyrazolo[4,3-c]pyridin-1-yl]piperidine-1-carbonyl]-1-piperidyl]-N-[3-(4-cyano-3-methoxy-phenoxy)-2,2,4,4-tetramethyl-cyclobutyl]benzamide]	< 1 nM	0.1 to 1 nM
CC(=O)N1CCc2c(c(Nc3ccc(-c4cnn(C)c4)cc3F)nn2C2CCN(C(=O)CC3CCN(c4ncc(C(=O)NC5C(C)(C)C(Oc6ccc(C#N)c(Cl)c6)C5(C)C)cn4)CC3)CC2)C1 (stereo not shown) [Compound 178, 2-[4-[2-[4-[5-acetyl-3-[2-fluoro-4-(1-methylpyrazol-4-yl)anilino]-6,7-dihydro-4H-pyrazolo[4,3-c]pyridin-1-yl]-1-piperidyl]-2-oxo-ethyl]-1-piperidyl]-N-[3-(3-chloro-4-cyano-phenoxy)-2,2,4,4-tetramethyl-cyclobutyl]pyrimidine-5-carboxamide]	< 1 nM	0.1 to 1 nM
CC(=O)N1CCc2c(c(N3CCCc4cc(-c5cnn(C)c5)c(C(F)F)cc43)nn2C2CC3(C2)CC2(CCN(c4ncc(C(=O)NC5C(C)(C)C(Oc6ccc(C#N)c(Cl)c6)C5(C)C)cn4)CC2)C3)C1 (stereo not shown) [Compound 287, 2-[2-[5-acetyl-3-[7-(difluoromethyl)-6-(1-methylpyrazol-4-yl)-3,4-dihydro-2H-quinolin-1-yl]-6,7-dihydro-4H-pyrazolo[4,3-c]pyridin-1-yl]-9-azadispiro[3.1.5^6.1^4]dodecan-9-yl]-N-[3-(3-chloro-4-cyano-phenoxy)-2,2,4,4-tetramethyl-cyclobutyl]pyrimidine-5-carboxamide]	1 to 10 nM	1 to 100 nM
C[C@@H]1CC(=O)Nc2cccc(-c3ccc4c(c3)c(-c3cnn(C)c3)nn4CC3CCN(c4ncc(C(=O)NC5C(C)(C)C(Oc6ccc(C#N)c(Cl)c6)C5(C)C)cn4)CC3)c2N1 (stereo partly drawn) [Compound 58, N-[3-(3-chloro-4-cyano-phenoxy)-2,2,4,4-tetramethyl-cyclobutyl]-2-[4-[[5-[(4R)-4-methyl-2-oxo-1,3,4,5-tetrahydro-1,5-benzodiazepin-6-yl]-3-(1-methylpyrazol-4-yl)indazol-1-yl]methyl]-1-piperidyl]pyrimidine-5-carboxamide]	> 100 nM	> 100 nM
COc1cc(OC2C(C)(C)C(NC(=O)c3ccc(N4CC(N5CCC6(CCC(n7nc(N8CCCc9cc(-c%10cnn(C)c%10)c(C(F)F)cc98)c8c7CCN(C(C)=O)C8)CC6)C5)C4)cc3)C2(C)C)ccc1C#N (stereo not shown) [Compound 402, 4-[3-[8-[5-acetyl-3-[7-(difluoromethyl)-6-(1-methylpyrazol-4-yl)-3,4-dihydro-2H-quinolin-1-yl]-6,7-dihydro-4Hpyrazolo[4,3-c]pyridin-1-yl]-2-azaspiro[4.5]decan-2-yl]azetidin-1-yl]-N-[3-(4-cyano-3-methoxy-phenoxy)-2,2,4,4-tetramethyl-cyclobutyl]benzamide]	< 1 nM	≤ 0.1 nM
CC(=O)N1CCc2c(c(N3CCCc4cc(C#N)ccc43)nn2C2CC3(C2)CN(CC2CC4(C2)CN(c2ncc(C(=O)NC5C(C)(C)C(Oc6ccc(C#N)c(Cl)c6)C5(C)C)cn2)C4)C3)C1 (stereo not shown) [Compound 221, 2-[6-[[6-[5-acetyl-3-(6-cyano-3,4-dihydro-2H-quinolin-1-yl)-6,7-dihydro-4H-pyrazolo[4,3-c]pyridin-1-yl]-2-azaspiro[3.3]heptan-2-yl]methyl]-2-azaspiro[3.3]heptan-2-yl]-N-[3-(3-chloro-4-cyano-phenoxy)-2,2,4,4-tetramethyl-cyclobutyl]pyrimidine-5-carboxamide]	1 to 10 nM	1 to 100 nM
COc1cc(OC2C(C)(C)C(NC(=O)c3ccc(N4CCN(C5CCN(c6ccc(-c7cc8c(cc7C(F)F)N(c7nn(C9CCOCC9)c9c7CN(C(C)=O)CC9)CCC8)cn6)CC5)CC4)cc3)C2(C)C)ccc1C#N (stereo not shown) [Compound 325, 4-[4-[1-[5-[1-(5-acetyl-1-tetrahydropyran-4-yl-6,7-dihydro-4H-pyrazolo[4,3-c]pyridin-3-yl)-7-(difluoromethyl)-3,4-dihydro-2H-quinolin-6-yl]-2-pyridyl]-4-piperidyl]piperazin-1-yl]-N-[3-(4-cyano-3-methoxy-phenoxy)-2,2,4,4-tetramethyl-cyclobutyl]benzamide]	< 1 nM	0.1 to 1 nM
CC(=O)N1CCc2c(c(N3CCCc4cc(-c5cnn(C)c5)c(C(F)F)cc43)nn2C2CCN(C3CCC(C#Cc4ncc(C(=O)NC5C(C)(C)C(Oc6ccc(C#N)c(Cl)c6)C5(C)C)cn4)CC3)CC2)C1 (stereo not shown) [Compound 293, 2-[2-[4-[4-[5-acetyl-3-[7-(difluoromethyl)-6-(1-methylpyrazol-4-yl)-3,4-dihydro-2H-quinolin-1-yl]-6,7-dihydro-4H-pyrazolo[4,3-c]pyridin-1-yl]-1-piperidyl]cyclohexyl]ethynyl]-N-[3-(3-chloro-4-cyano-phenoxy)-2,2,4,4-tetramethyl-cyclobutyl]pyrimidine-5-carboxamide]	< 1 nM	0.1 to 1 nM
CC(=O)N1CCc2c(c(N3CCCc4cc(-c5cnn(C)c5)c(C(F)F)cc43)nn2C2CCC(C3CCC4(CC3)CN(c3ncc(C(=O)NC5C(C)(C)C(Oc6ccc(C#N)c(Cl)c6)C5(C)C)cn3)C4)CC2)C1 (stereo not shown) [Compound 377, 2-[7-[4-[5-acetyl-3-[7-(difluoromethyl)-6-(1-methylpyrazol-4-yl)-3,4-dihydro-2H-quinolin-1-yl]-6,7-dihydro-4H-pyrazolo[4,3-c]pyridin-1-yl]cyclohexyl]-2-azaspiro[3.5]nonan-2-yl]-N-[3-(3-chloro-4-cyano-phenoxy)-2,2,4,4-tetramethyl-cyclobutyl]pyrimidine-5-carboxamide]	1 to 10 nM	1 to 100 nM
C[C@@H]1CC(=O)Nc2cccc(-c3ccc4c(c3)c(-c3cnn(C)c3)nn4CCCN3CCN(c4ncc(C(=O)NC5C(C)(C)C(Oc6ccc(C#N)c(Cl)c6)C5(C)C)cn4)CC3)c2N1 (stereo partly drawn) [Compound 55, N-[3-(3-chloro-4-cyano-phenoxy)-2,2,4,4-tetramethyl-cyclobutyl]-2-[4-[3-[5-[(4R)-4-methyl-2-oxo-1,3,4,5-tetrahydro-1,5-benzodiazepin-6-yl]-3-(1-methylpyrazol-4-yl)indazol-1-yl]propyl]piperazin-1-yl]pyrimidine-5-carboxamide]	> 100 nM	> 100 nM
